Reference: patent US10287267B2, “Isoquinolin-3-yl carboxamides and preparation and use thereof” (Samumed, LLC, priority 2016, dated 2019)
Where two headings read alike, the source gives them in different places.

Tests used:
[1] = tested on: IL-6; assay: IL-6 inhibition in LPS-stimulated human peripheral blood mononuclear cells (HTRF); type: cell-based; conditions: Homo sapiens, PBMC; for EC50: Table 9, huPBMCs, LPS 50 ng/mL, 22 hours, dose-response starting from 10 μM; for inhibition at 10 µM: read-out: percent value in parentheses beside EC50 >10 μM;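 for all read-outs here: IL-6 detected by HTRF with an XL665- and Cryptate-labelled anti-IL-6 antibody pair, samples run in duplicate, EC50 obtained from a four-parameter Levenberg-Marquardt curve fit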
Protocol: After 22 hour incubation, a mixture of anti-IL6 XL665 and anti-IL-6 Cryptate diluted in reconstitution buffer (Catalog #62IL6PEC, Cisbio Inc., Bedford, Mass.) was added to each well. […] All samples were processed in duplicate. […] EC50 was determined using software generated by Dotmatics Limited (Windhill Bishops Stortford Herts, UK) using the Levenberg-Marquardt 4 parameter fitting procedure with finite different gradients.

[2] = tested on: Wnt pathway (Sp5-Luc reporter, TCF/LEF binding sites) in SW480 colon carcinoma cells; assay: Screening assay for Wnt activity: Sp5-Luc reporter gene assay; type: cell-based, human; conditions: Homo sapiens; for EC50: Sp5-Luc reporter, SW480 cells, 36 to 48 hours;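 for all read-outs here: firefly luciferase luminescence read in stably transduced SW480 cells carrying the Sp5 promoter reporter with eight TCF/LEF sites, compounds given in 0.1% DMSO final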
Protocol: The screening assay for Wnt activity is described as follows.
Following incubation, 15 μl of BriteLite Plus luminescence reagent (Perkin Elmer) was added to each well of the 384-well assay plates. The plates were placed on an orbital shaker for 2 min and then luminescence was quantified using the Envision (Perkin Elmer) plate reader.

[3] = tested on: Tau phosphorylation at Ser396 (pSer396); assay: Tau phosphorylation assay (pSer396 ELISA / western blot) in SH-SY5Y cells; type: cell-based, human; conditions: Homo sapiens, read-out: pSer396 Tau EC50;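 note: EC50 for reduction of Tau pSer396 in lysed cells, measured by colorimetric ELISA or chemiluminescent western blot, both using the same pSer396 antibody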
[4] = tested on: SW480 colon carcinoma cells; assay: Cell viability assay (CellTiter-Glo); type: cell-based, human; conditions: Homo sapiens; for EC50: 96 h, SW480 cells, CellTiter-Glo, four days incubation; for inhibition at 10 µM: SW480, read-out: percent inhibition at 10 μM
[5] = tested on: α-smooth muscle actin (αSMA) positive LL29 cells; assay: Inhibition of fibrotic process: αSMA in TGF-β1 treated primary human fibroblasts from IPF patients; type: cell-based; conditions: Homo sapiens, Fibroblast; for EC50: 96 h, Table 8, LL29 fibroblasts from IPF patients, TGF-β1 20 ng/mL, 4 days, dose-response 10 μM to 0.94 nM; for inhibition at 10 µM: read-out: percent value in parentheses beside EC50 >10 μM;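 for all read-outs here: controls were TGF-β1 stimulated wells with DMSO vehicle (positive) and cells given DMSO alone (negative), cultured in F12 medium with 1% fetal bovine serum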
[6] = target: recombinant GSK3β kinase (Homo sapiens (Human), UniProt P49841); assay: GSK3β kinase assay (Ser/Thr 09 peptide Z-lyte FRET); type: biochemical; conditions: 46 μM ATP, 1 h room temperature;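 note: kinase activity read as coumarin to fluorescein emission ratio, 11-point threefold dilutions from 10 µM to 0.0003 µM in duplicate, unphosphorylated and phosphorylated peptide as 0% and 100% controls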
recombinant GSK3β kinase, sequence (P49841 whole entry): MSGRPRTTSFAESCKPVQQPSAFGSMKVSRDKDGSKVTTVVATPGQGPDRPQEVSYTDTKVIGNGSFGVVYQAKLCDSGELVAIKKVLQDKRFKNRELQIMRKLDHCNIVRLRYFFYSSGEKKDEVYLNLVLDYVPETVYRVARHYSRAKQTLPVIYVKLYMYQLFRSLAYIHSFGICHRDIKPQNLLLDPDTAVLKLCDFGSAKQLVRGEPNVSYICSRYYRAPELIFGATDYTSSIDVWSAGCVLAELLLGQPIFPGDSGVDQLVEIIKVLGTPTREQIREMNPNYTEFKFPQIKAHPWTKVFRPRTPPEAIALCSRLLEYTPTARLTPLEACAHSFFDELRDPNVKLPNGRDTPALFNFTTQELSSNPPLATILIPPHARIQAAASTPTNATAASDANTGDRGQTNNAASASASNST

[7] = target: recombinant DYRK1A kinase (Homo sapiens (Human), UniProt Q13627); assay: DYRK1A kinase assay (Ser/Thr 18 peptide Z-lyte FRET); type: biochemical; conditions: 30 μM ATP, 1 h room temperature;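 note: Read-out is the coumarin to fluorescein emission ratio, referenced to unphosphorylated (0%) and phosphorylated (100%) Ser/Thr 18 peptide controls, values from dose-response curves by non-linear regression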
[8] = SH-SY5Y cells, overnight (16-18 h) exposure

Structure (SMILES) | EC50 [1] [nM] | EC50 [2] [nM] | EC50 [3, 8] [nM] | EC50 [4] [nM] | EC50 [5] [nM] | EC50 [6] [nM] | EC50 [7] [nM] | inhibition at 10 µM [5] [%] | inhibition at 10 µM [1] [%] | inhibition at 10 µM [4] [%] | EC50 ([3]; SH-SY5Y) [nM] | inhibition at 10 µM ([2]; SW480, read-out: percent inhibition at 10 μM) [%]
Cn1cc(-c2ccc3cnc(NC(=O)C4CC5(C4)CN(C(=O)C(F)(F)F)C5)cc3c2)cn1 [Compound 325, N-(6-(1-Methyl-1H-pyrazol-4-yl)isoquinolin-3-yl)-2-(2,2,2-trifluoroacetyl)-2-azaspiro[3.3]heptane-6-carboxamide] | 357 | 552 | 440 | 526 | 1300 | 3 | 2.1 |  |  |  |  | 
Cn1cc(-c2ccc3cnc(NC(=O)C4CC5(C4)CN(CCF)C5)cc3c2)cn1 [Compound 326, 2-(2-Fluoroethyl)-N-(6-(1-methyl-1H-pyrazol-4-yl)isoquinolin-3-yl)-2-azaspiro[3.3]heptane-6-carboxamide] | 380 | 438 | 574 | 400 | > 10000 | 19 | 2.9 | 47.2 |  |  |  | 
Cn1cc(-c2ccc3cnc(NC(=O)[C@H]4CC[C@H](N(C)C)CC4)cc3c2)cn1 [Compound 327, trans-4-(Dimethylamino)-N-(6-(1-methyl-1H-pyrazol-4-yl)isoquinolin-3-yl)cyclohexane-1-carboxamide] | 947 | 258 | 411 | 1580 | 58 | 66 | 1.7 |  |  |  |  | 
Cn1cc(-c2ccc3cnc(NC(=O)C4CCN(C(=O)c5ccccc5)CC4)cc3c2)cn1 [Compound 328, 1-Benzoyl-N-(6-(1-methyl-1H-pyrazol-4-yl)isoquinolin-3-yl)piperidine-4-carboxamide] | 398 | 804 | 231 | 929 | > 10000 | 16 | 1.9 | 34.5 |  |  |  | 
CC(=O)N1CCC(C(=O)Nc2cc3cc(-c4cnn(C)c4)ccc3cn2)CC1 [Compound 329, 1-Acetyl-N-(6-(1-methyl-1H-pyrazol-4-yl)isoquinolin-3-yl)piperidine-4-carboxamide] | 1160 | 1170 | 524 | 4120 | 212 | 29 | 2.7 |  |  |  |  | 
CN1CCC(N2CCC(C(=O)Nc3cc4cc(-c5cnn(C)c5)ccc4cn3)CC2)CC1 [Compound 331, 1′-Methyl-N-(6-(1-methyl-1H-pyrazol-4-yl)isoquinolin-3-yl)-[1,4′-bipiperidine]-4-carboxamide] | 882 | 2990 | 311 | 3120 | 96 | 55 | 1.8 |  |  |  |  | 
Cn1cc(-c2ccc3cnc(NC(=O)C4CCN(C5CCOCC5)CC4)cc3c2)cn1 [Compound 332, N-(6-(1-Methyl-1H-pyrazol-4-yl)isoquinolin-3-yl)-1-(tetrahydro-2H-pyran-4-yl)piperidine-4-carboxamide] | 1070 | 662 | 249 | 1000 | 291 | 39 | 3.5 |  |  |  |  | 
Cn1cc(-c2ccc3cnc(NC(=O)[C@H]4CC[C@H](CO)CC4)cc3c2)cn1 [Compound 333, trans-4-(Hydroxymethyl)-N-(6-(1-methyl-1H-pyrazol-4-yl)isoquinolin-3-yl)cyclohexane-1-carboxamide] | 790 | 384 | 1100 | 641 | 61 | 60 | 1.2 |  |  |  |  | 
COC(=O)CN1CCC(C(=O)Nc2cc3cc(-c4cnn(C)c4)ccc3cn2)CC1 [Compound 334, Methyl 2-(4-((6-(1-methyl-1H-pyrazol-4-yl)isoquinolin-3-yl)carbamoyl)piperidin-1-yl)acetate] | 263 | 787 | 820 | 7370 | 63 | 47 | 1.6 |  |  |  |  | 
Cn1cc(-c2ccc3cnc(NC(=O)C4CCN(Cc5ccccc5)CC4)cc3c2)cn1 [Compound 335, 1-Benzyl-N-(6-(1-methyl-1H-pyrazol-4-yl)isoquinolin-3-yl)piperidine-4-carboxamide] | 401 | 993 | 289 | 1120 | 111 | 71 | 3.8 |  |  |  |  | 
Cn1cc(-c2ccc3cnc(NC(=O)C4CCN(C(=O)CN5CCCC5)CC4)cc3c2)cn1 [Compound 336, N-(6-(1-Methyl-1H-pyrazol-4-yl)isoquinolin-3-yl)-1-(2-(pyrrolidin-1-yl)acetyl)piperidine-4-carboxamide] | 569 | 395 | 820 | 510 | > 10000 | 83 | 2.9 | 38.4 |  |  |  | 
Cn1cc(-c2ccc3cnc(NC(=O)[C@@H]4CCCCN4)cc3c2)cn1 [Compound 340, (S)—N-(6-(1-Methyl-1H-pyrazol-4-yl)isoquinolin-3-yl)piperidine-2-carboxamide] | 562 | 932 | 2300 | 2230 | 413 | 257 | 1.9 |  |  |  |  | 
C[C@H]1COCCN1CC(=O)Nc1cc2cc(-c3cnn(C)c3)ccc2cn1 [Compound 341, (S)—N-(6-(1-Methyl-1H-pyrazol-4-yl)isoquinolin-3-yl)-2-(3-methylmorpholino)acetamide] | > 10000 | 4100 | 1600 | > 10000 | 2370 | 89 | 5.6 |  | 46.1 | 33.9 |  | 
C[C@@H]1COCCN1CC(=O)Nc1cc2cc(-c3cnn(C)c3)ccc2cn1 [Compound 342, (R)—N-(6-(1-Methyl-1H-pyrazol-4-yl)isoquinolin-3-yl)-2-(3-methylmorpholino)acetamide] | 4170 | 7220 | 3600 | > 10000 | 948 | 137 | 6.5 |  |  | 40 |  | 
C[C@H]1CN(CC(=O)Nc2cc3cc(-c4cnn(C)c4)ccc3cn2)CCO1 [Compound 343, (S)—N-(6-(1-Methyl-1H-pyrazol-4-yl)isoquinolin-3-yl)-2-(2-methylmorpholino)acetamide] | > 10000 | 3590 | 2400 | 7890 | 446 | 71 | 9.9 |  | 47.4 |  |  | 
C[C@@H]1CN(CC(=O)Nc2cc3cc(-c4cnn(C)c4)ccc3cn2)C[C@H](C)O1 [Compound 344, 2-((2R,6S)-2,6-Dimethylmorpholino)-N-(6-(1-methyl-1H-pyrazol-4-yl)isoquinolin-3-yl)acetamide] | 9130 | 5470 | 3500 | 7680 | > 10000 | 175 | 10.5 | 24.3 |  |  |  | 
Cn1cc(-c2ccc3cnc(NC(=O)CN4C[C@@H]5C[C@H]4CO5)cc3c2)cn1 [Compound 345, 2-((1S,4S)-2-Oxa-5-azabicyclo[2.2.1]heptan-5-yl)-N-(6-(1-methyl-1H-pyrazol-4-yl)isoquinolin-3-yl)acetamide] | 4170 | 2120 | 774 | 3080 | > 10000 | 26 | 4 | 38 |  |  |  | 
Cn1cc(-c2ccc3cnc(NC(=O)CN4C[C@H]5C[C@@H]4CO5)cc3c2)cn1 [Compound 346, 2-((1R,4R)-2-Oxa-5-azabicyclo[2.2.1]heptan-5-yl)-N-(6-(1-methyl-1H-pyrazol-4-yl)isoquinolin-3-yl)acetamide] | 9440 | 4360 | 1800 | 9660 | 965 | 84 | 9.9 |  |  |  |  | 
Cn1cc(-c2ccc3cnc(NC(=O)CN4C5CCC4COC5)cc3c2)cn1 [Compound 347, 2-(3-Oxa-8-azabicyclo[3.2.1]octan-8-yl)-N-(6-(1-methyl-1H-pyrazol-4-yl)isoquinolin-3-yl)acetamide] | > 10000 | 9440 |  | > 10000 | 5220 | 165 | 10.4 |  | 4.5 | 48.5 | 4400 | 
C[C@@H](C(=O)Nc1cc2cc(-c3cnn(C)c3)ccc2cn1)N1CCOCC1 [Compound 348, (S)—N-(6-(1-Methyl-1H-pyrazol-4-yl)isoquinolin-3-yl)-2-morpholinopropanamide] | > 10000 | > 10000 | 2000 | > 10000 | 1460 | 221 | 77.5 |  | 19 | 22.4 |  | 36.9
